pEC50, pIC50: −log10 of the molar value. Like-named read-outs stand apart in the source and are kept apart here.
How the values were obtained:
SARS-CoV-2 = assay: microbe, parasite or virus in culture; assay type: cell-based; conditions: Severe acute respiratory syndrome coronavirus 2, VeroE6/TMPRSS2, 72 h, 50% SARS-CoV-2 infected cell death inhibitory concentration, VeroE6/TMPRSS2 cells, 3 days culture
SARS-CoV-2 3CL protease = SARS-CoV-2 3CL protease (Severe acute respiratory syndrome coronavirus 2, UniProt P0DTD1); assay: biochemical; conditions: 50% SARS-CoV-2 3CL protease inhibitory concentration, read-out: IC50

| Compound | pEC50 (SARS-CoV-2; class symbols) | pIC50 (SARS-CoV-2 3CL protease; given as class symbols) | pEC50 (SARS-CoV-2; CellTiter-Glo 2.0) | pIC50 (SARS-CoV-2 3CL protease; RapidFire MS) |
| --- | --- | --- | --- | --- |
| Cn1cnc(Cn2c(=O)cc(Nc3cc4cn(C)nc4cc3Cl)n(Cc3cc(F)c(F)c(F)c3)c2=O)n1 [II-0430] | 5.00 to 6.00 | > 7.00 |  |  |
| Cc1cncc(-n2c(=O)nc(Nc3cc4cn(C)nc4cc3F)n(Cc3cc(F)c(F)cc3F)c2=O)c1 [II-0528] | > 6.00 | > 7.00 |  |  |
| N#Cc1cc(Cn2c(Nc3ccc4nn(CC(F)F)cc4c3)nc(=O)n(-c3cncc(Cl)c3)c2=O)ccc1F [II-0415] |  |  | 6.06 | 7.82 |
| Cc1cncc(-n2c(=O)nc(Nc3cc4cn(CC(F)F)nc4cc3Cl)n(Cc3ccc(F)c(C#N)c3)c2=O)c1 [II-0089] |  |  | 6.74 | 8.44 |
| Cc1cncc(-n2c(=O)nc(Nc3ccc4nn(CC(F)(F)F)cc4c3)n(Cc3cc(C#N)ccc3F)c2=O)c1 [II-0312] | > 6.00 | > 7.00 |  |  |
| Cn1cnc(Cn2c(=O)nc(Nc3cc4cn(CC5(NC(=O)OC(C)(C)C)CC5)nc4cc3Cl)n(Cc3cc(Cl)c(F)cc3F)c2=O)n1 [II-0562] | 5.00 to 6.00 | > 7.00 |  |  |
| Cn1cnc(Cn2c(=O)nc(Nc3cc4cn(C)nc4cc3Cl)n(Cc3cc(Cl)c(F)cc3Cl)c2=O)n1 [II-0363] | > 6.00 | > 7.00 |  |  |
| COc1ccc(Nc2nc(=O)n(-c3cncc4ccccc34)c(=O)n2Cc2cc(F)c(F)c(F)c2)c(Cl)c1 [Compound I-0152] | > 6.00 | > 7.00 |  |  |
| Cc1cncc(-n2c(=O)nc(Nc3cc4sc(C)nc4cc3F)n(Cc3ccc(F)c(C#N)c3)c2=O)c1 [II-0416] | 5.00 to 6.00 | > 7.00 |  |  |
| Cc1cncc(-n2c(=O)nc(Nc3cc4cn(C)nc4cc3Cl)n(Cc3cc(Cl)ccc3Cl)c2=O)c1 [II-0582] | > 6.00 | > 7.00 |  |  |
| COc1cc(Cn2c(Nc3cc4cn(C)nc4cc3Cl)nc(=O)n(-c3cncc(C)c3)c2=O)ccc1F [II-0593] | 5.00 to 6.00 | > 7.00 |  |  |
| Cc1cncc(-n2c(=O)nc(N3CC4CCC3CO4)n(Cc3cc(F)c(F)c(F)c3)c2=O)c1 (centres unmarked) [II-0375] |  |  | 4.67 | 5.42 |
| CC(C)(O)Cn1cc2cc(Nc3nc(=O)n(Cc4ncccn4)c(=O)n3Cc3cc(Cl)c(F)cc3F)c(Cl)cc2n1 [II-0240] | 5.00 to 6.00 | > 7.00 |  |  |
| Cc1cncc(-n2c(=O)nc(Nc3cc4sc(NC(C)C)nc4cc3Cl)n(Cc3ccc(F)c(C#N)c3)c2=O)c1 [II-0035] | > 6.00 | > 7.00 |  |  |
| Cc1cncc(-n2c(=O)nc(Nc3cc4cn(C)nc4cc3Cl)n(Cc3ccc(F)c(C#N)c3)c2=O)c1 [Compound I-0383] |  |  | 7.02 | 8.47 |
| Cn1ccc(-c2ccnc(Cn3c(=O)nc(Nc4cc5cn(C)nc5cc4Cl)n(Cc4cc(F)c(F)cc4F)c3=O)c2)n1 [II-0247] | > 6.00 | > 7.00 |  |  |
| COc1cc(Cl)c(Nc2nc(=O)n(Cc3ccc[nH]c3=O)c(=O)n2Cc2cc(F)c(F)c(F)c2)c(OC)c1 [Compound I-0094] | 5.00 to 6.00 | > 7.00 |  |  |
| Cc1cncc(-n2c(=O)nc(Nc3cc4cn(C)nc4cc3Cl)n(Cc3cc(F)cc(F)c3)c2=O)c1 [II-0201] | > 6.00 | > 7.00 |  |  |
| O=c1nc(Nc2cc3cn(CCO)nc3cc2Cl)n(Cc2cc(F)c(F)c(F)c2)c(=O)n1-c1cncc2ccccc12 [Compound I-0288] |  |  | 6.13 | 8.24 |

| Compound | pEC50 (SARS-CoV-2; class symbols) | pIC50 (SARS-CoV-2 3CL protease; given as class symbols) | pEC50 (SARS-CoV-2; CellTiter-Glo 2.0) | pIC50 (SARS-CoV-2 3CL protease; RapidFire MS) |
| --- | --- | --- | --- | --- |
| CNc1nc2cc(F)c(Nc3nc(=O)n(-c4cncc(C)c4)c(=O)n3Cc3cc(C#N)c(F)cc3C)cc2s1 [II-0234] | > 6.00 | > 7.00 |  |  |
| O=c1nc(Nc2cc3cn(CCO)nc3cc2Cl)n(Cc2cc(F)c(F)cc2F)c(=O)n1-c1cncc2ccccc12 [II-0032] | > 6.00 | > 7.00 |  |  |
| CNc1nc2cc(Cl)c(Nc3nc(=O)n(-c4cncc(C)c4)c(=O)n3Cc3ccc(F)c(C#N)c3)cc2s1 [II-0382] | > 6.00 | > 7.00 |  |  |
| Cc1cncc(-n2c(=O)nc(Nc3cc4cn(C)nc4cc3Cl)n(Cc3cc(F)c(F)cc3Br)c2=O)c1 [II-0404] | > 6.00 | > 7.00 |  |  |
| CNc1nc2ccc(Nc3nc(=O)n(-c4cncc(C)c4)c(=O)n3Cc3cc(F)c(F)c(F)c3)cc2s1 [II-0323] | > 6.00 | > 7.00 |  |  |
| Cc1cncc(-n2c(=O)nc(Nc3cc4cn(C)nc4cc3Cl)n(Cc3cc(C#N)ccc3Cl)c2=O)c1 [II-0579] |  |  | 7.17 | 8.68 |
| Cc1cncc(-n2c(=O)nc(Nc3cc4cn(C)nc4cc3Cl)n(Cc3cc(Cl)cc(Br)c3)c2=O)c1 [II-0215] | 5.00 to 6.00 | > 7.00 |  |  |
| Cn1cc2cc(Nc3nc(=O)n(Cc4cc(Cl)ccn4)c(=O)n3Cc3cc(F)c(F)cc3F)c(Cl)cc2n1 [II-0255] |  |  | 5.82 | 7.00 |
| COc1ccc(Nc2nc(=O)n(Cc3ccc[nH]c3=O)c(=O)n2Cc2cc(F)c(F)cc2Cl)cc1 [Compound I-0194] | 5.00 to 6.00 | > 7.00 |  |  |
| COc1ccc(Nc2nc(=O)n(Cc3cc4cccnc4[nH]c3=O)c(=O)n2Cc2cc(F)c(F)c(F)c2)cc1 [Compound I-0084] | 5.00 to 6.00 | > 7.00 |  |  |
| Cc1cncc(-n2c(=O)nc(Nc3cc4cn(CC(F)(F)F)nc4cc3Cl)n(Cc3cc(F)c(F)c(F)c3)c2=O)c1 [II-0564] | > 6.00 | > 7.00 |  |  |
| Cc1cncc(-n2c(=O)nc(Nc3cc4cn(C)nc4cc3Cl)n(Cc3cc(Cl)c(F)c(Cl)c3)c2=O)c1 [II-0588] | > 6.00 | > 7.00 |  |  |
| COCc1cncc(-n2c(=O)nc(Nc3ccc4c(c3)CCO4)n(Cc3ccc(F)c(C#N)c3)c2=O)c1 [II-0271] | 5.00 to 6.00 | > 7.00 |  |  |
| CNc1nc2cc(Cl)c(Nc3nc(=O)n(-c4cncc(C)c4)c(=O)n3Cc3cc(C#N)ccc3C)cc2s1 [II-0395] | > 6.00 | > 7.00 |  |  |
| COc1ccc(Nc2nc(=O)n(-c3cncc(C)c3)c(=O)n2Cc2ccc(F)c(C#N)c2)c(C)c1 [II-0162] | > 6.00 | > 7.00 |  |  |
| Cc1cncc(-n2c(=O)nc(Nc3cc4cn(C5COC5)nc4cc3Cl)n(Cc3ccc(F)c(C#N)c3)c2=O)c1 [II-0158] | 5.00 to 6.00 | > 7.00 |  |  |
| Cc1cncc(-n2c(=O)nc(Nc3cc4cn(C)nc4cc3C)n(Cc3ccc(F)c(C#N)c3)c2=O)c1 [Compound I-0385] | > 6.00 | > 7.00 |  |  |
| Cc1cncc(-n2c(=O)nc(Nc3cc4sc(NCC(F)F)nc4cc3F)n(Cc3cc(F)c(F)c(C#N)c3)c2=O)c1 [II-0423] | 5.00 to 6.00 | > 7.00 |  |  |
| Cc1cncc(-n2c(=O)nc(Nc3cc4cn(C)nc4cc3Cl)n(Cc3cc(F)cc(Cl)c3)c2=O)c1 [II-0177] | > 6.00 | > 7.00 |  |  |

| Compound | pEC50 (SARS-CoV-2; class symbols) | pIC50 (SARS-CoV-2 3CL protease; given as class symbols) | pEC50 (SARS-CoV-2; CellTiter-Glo 2.0) | pIC50 (SARS-CoV-2 3CL protease; RapidFire MS) |
| --- | --- | --- | --- | --- |
| Cn1cnc(Cn2c(=O)nc(Nc3cc4oc(N)nc4cc3Cl)n(Cc3cc(Cl)c(F)cc3F)c2=O)n1 [II-0056] | 5.00 to 6.00 | > 7.00 |  |  |
| Cc1cncc(-n2c(=O)nc(Nc3cc4cn(CCN5CCOCC5)nc4cc3Cl)n(Cc3cc(F)c(F)c(F)c3)c2=O)c1 [II-0351] | > 6.00 | > 7.00 |  |  |
| Cc1cncc(-n2c(=O)nc(Nc3ccc4nn(CC(F)F)cc4c3)n(Cc3cc(C#N)ccc3Cl)c2=O)c1 [II-0570] |  |  | 6.22 | 8.36 |
| Cn1cc2cc(Nc3nc(=O)n(-c4cncc5ccccc45)c(=O)n3Cc3cc(F)c(F)cc3F)c(Cl)cc2n1 [II-0308] | > 6.00 | > 7.00 |  |  |
| Cn1cnc(Cn2c(=O)nc(Nc3cc4cn(C)nc4cc3F)n(Cc3cc(F)c(F)c(Cl)c3)c2=O)n1 [II-0060] | 5.00 to 6.00 | > 7.00 |  |  |
| COc1ccc(Nc2nc(=O)n(-c3cncc4ccccc34)c(=O)n2Cc2cc(F)c(F)c(F)c2)cc1 [Compound I-0136] | 5.00 to 6.00 | > 7.00 |  |  |
| COc1ccc(Nc2nc(=O)n(Cc3ccc[nH]c3=O)c(=O)n2Cc2cc(Cl)ccc2Cl)cc1 [Compound I-0214] | > 6.00 | > 7.00 |  |  |
| Cn1cc2cc(Nc3nc(=O)n(Cc4ccc[nH]c4=O)c(=O)n3Cc3cc(F)c(F)cc3F)c(Cl)cc2n1 [Compound I-0009] | > 6.00 | > 7.00 |  |  |
| CNc1cncc(-n2c(=O)nc(Nc3cc4cn(C)nc4cc3Cl)n(Cc3cc(Cl)c(F)cc3F)c2=O)c1 [II-0599] | > 6.00 | > 7.00 |  |  |
| Cc1cncc(-n2c(=O)nc(Nc3ccc4nn(CC(F)F)cc4c3)n(Cc3ccc(F)c(C#N)c3)c2=O)c1 [Compound I-0355] | > 6.00 | > 7.00 | 6.47 | 8.06 |
| Cc1cc2c(cc1Nc1nc(=O)n(-c3cncc4ccccc34)c(=O)n1Cc1ccc(F)c(C#N)c1)CCO2 [II-0160] | > 6.00 | > 7.00 |  |  |
| Cc1cncc(-n2c(=O)nc(Nc3cc4cn(CCN5CCOCC5)nc4cc3Cl)n(Cc3cc(F)c(F)cc3F)c2=O)c1 [II-0007] | > 6.00 | > 7.00 |  |  |
| Cc1cncc(-n2c(=O)nc(Nc3ccc4nn(CC(F)(F)F)cc4c3)n(Cc3cc(C#N)ccc3Cl)c2=O)c1 [II-0001] |  |  | 6.33 | 8.47 |
| Cn1cnc(Cn2c(=O)nc(Nc3cc4c(cc3Cl)OCC4)n(Cc3cc(F)c(F)c(Cl)c3)c2=O)n1 [II-0046] | > 6.00 | > 7.00 |  |  |
| Cn1cnc(Cn2c(=O)nc(Nc3cc4oc(N)nc4cc3Cl)n(Cc3cc(F)c(F)cc3F)c2=O)n1 [II-0057] | 5.00 to 6.00 | > 7.00 |  |  |
| Cc1cncc(-n2c(=O)nc(Nc3ccc4oc(C)c(C)c4c3)n(Cc3ccc(F)c(C#N)c3)c2=O)c1 [II-0195] | 5.00 to 6.00 | > 7.00 |  |  |
| O=c1[nH]cccc1Cn1c(=O)nc(Nc2cc3c(cc2Cl)OCC3)n(Cc2cc(F)c(F)c(F)c2)c1=O [Compound I-0239] |  |  | 6.65 | 8.41 |
| Cn1cnc(Cn2c(=O)nc(Nc3cc4cn(Cc5ccccn5)nc4cc3Cl)n(Cc3cc(F)c(F)c(Cl)c3)c2=O)n1 [II-0006] | 5.00 to 6.00 | > 7.00 |  |  |
| O=c1[nH]cccc1Cn1c(=O)nc(NC2CCCCC2)n(Cc2cc(F)c(F)c(F)c2)c1=O [II-0228] |  |  | 5.30 | 6.62 |
